What all share (assay type): cell-based
One data set has as its system PC12 cells. The data set is described as follows: MTT cell viability assay, PC12 cell line. Conditions: negative control amino acid, increasing amount. The protocol: (§1) Cell cytotoxicity experiments—CHO cells (2×10^5 cells/mL) were cultured in 96-well micro plates (100 μL/well) and incubated overnight at 37° C. 100 μL of phenylalanine was added to each well dissolved in Dulbecco's Modified Eagle Medium (DMEM) (Beit Haemek, Israel) at various concentrations. Each experiment was repeated 3 times. Following incubation for 6 hours at 37° C., cell viability was evaluated using the 3-(4,5-dimethylthiazolyl-2)-2,5-diphenyltetrazolium bromide (MTT) assay. Briefly, 20 μL of 5 mg/mL MTT dissolved in PBS was added to each well. After 4 hours incubation at 37° C., 100 μL of extraction buffer [20% SDS dissolved in a solution of 50% dimethylformamide and 50% DDW (pH 4.7)] was added to each well, and the plates were incubated again overnight at 37° C. Finally, color intensity was measured using an ELISA reader at 570 nm.
(§2) The present inventors next examined whether, like many amyloid structures, phenylalanine assemblies have a cytotoxic effect. This was examined in a physiological range of concentration, similar to that detected in untreated PKU patients. We performed in vitro cellular viability experiments. To this end, elevated concentrations of phenylalanine ranging from 0.1 μM to 15 mM were added to […] cultured PC12 cells. […] In the presence of 1.8 mM phenylalanine, PC12 cell viability was decreased to approximately 80%. […] In the presence of 6 mM phenylalanine, CHO cell viability was decreased to 84%. Moreover, the viability of the cells in the presence of phenylalanine at concentration of 12 mM was lower than 40% (FIG. 2A). The present assay is performed at much shorter time scales than those of disease progression and this may account for the slightly elevated concentrations than those typically found at PKU patients. It is also possible that such high concentrations of phenylalanine occur pathologically in PKU patients due to transient local high concentration in the brain. […] The present inventors further assessed the influence of the phenylalanine fibrils on the CHO cells using scanning electron microscope.

Data set [1] is described as follows: MTT cell viability assay, PC12 cell line. Conditions: rat, PC12 cells. How it is done:
as §1, §2
Background: Tetrazolium assays rely on reduction of a dye to a coloured formazan, in cell work by metabolically active cells.

A short description of data set [2]: MTT cell viability assay, CHO cell line. Conditions: Chinese hamster, CHO cells. The protocol:
as §1

Data set [3] can be described thus: Immuno precipitation and cell cytotoxicity experiments (MTT). Particulars: Chinese hamster, prior to IP, CHO cells. How it is done: as §1
Immuno precipitation and cell cytotoxicity experiments—Phenylalanine solution at concentration of 7.5, 1.87, 0.46, 0.11 were either incubated with CHO cell or immuno-precipitate and then the solutions, without the fibrils, were incubated with CHO cell according to cell cytotoxicity experiments detailed above. Samples were immuno-precipitated with anti-phenylalanine fibrils antibodies (1:10) over night at 4° C. (previously purified on protein A column, in PBS+2% BSA).

For another data set, the system named is CHO cells. Description: Scanning electron microscopy imaging of CHO cells. Conditions: incubation with phenylalanine fibrils 6 hour, SEM. The protocol: Scanning electron microscopy imaging of CHO cells—CHO cell were cultured on glass cover slips located in 24-well micro plates, then incubated with various concentration of phenylalanine fibrils for 6 hour at 37° C., as described in the cell cytotoxicity experiments section. The cell were fixated on the glass cover slip with 2.5% glutaraldehyde, then dehydrated and coated with gold. Scanning electron microscopy images were made using a JSM JEOL 840A SEM operating at 5 kV.

Each structure is given as a SMILES string.

For `C[C@H](N)C(=O)O` [Alanine, reference compound], in the data set with PC12 cells, the “toxic effect (cytotoxicity)” value is recorded as “did not demonstrate a toxic effect”.
Broadly, the viability is a per cent measure of how many cells are alive, often set against a control. `N[C@@H](Cc1ccccc1)C(=O)O` [phenylalanine] had a viability at 1.8 mM in data set [1] (1.8 mM phenylalanine) of about 80%. Besides, the viability at 7.5 mM in data set [1] (7.5 mM phenylalanine) is about 65%. The same molecule gave a viability at 6 h, 6 mM in data set [2] (6 mM phenylalanine) of 84%. The viability at 6 h, 12 mM in data set [2] (12 mM phenylalanine) was under 40%. This molecule showed a viability at 6 h, 1.87 mM in data set [3] (1.87 mM phenylalanine assemblies) of 56%. In data set [3] (7.5 mM phenylalanine assemblies), this molecule yielded a viability at 6 h, 7.5 mM of 44%. Also, the CHO cell morphology entry with CHO cells was “smaller and rounded”. In the data set with CHO cells (compared to untreated cells), the CHO cell density result is given as “very low density”.

The values are drawn from patent US9061006B2, “Compositions and methods for diagnosing and treating phenylketonuria (PKU)” (Ramot at Tel-Aviv University Ltd., priority 2011, dated 2015).
